Measured values published in US12679842B2, “HCK as a therapeutic target in MYD88 mutated diseases” (Dana-Farber Cancer Institute, Inc., priority 2019, dated 2026).

Columns and labels:
[1] = test system: BTK C481S expressing lentiviral vector transduced BCWM.1 WM cells; assay: CellTiter-Glo cell viability assay in BTK WT or BTK C481S transduced BCWM.1 cells; assay type: cell-based; conditions: MYD88 mutated WM cells (BCWM.1), 72 hrs, FIG. 4
[2] = test system: BTK C481S expressing lentiviral vector transduced TMD8 ABC-DLBCL cells; assay: CellTiter-Glo cell viability assay in BTK WT or BTK C481S transduced TMD8 cells; assay type: cell-based; conditions: MYD88 mutated ABC DLBCL cells (TMD8), 72 hrs, FIG. 4

CN1CCN(C2CCC(n3nc(-c4ccc(Oc5ccccc5)cc4)c4c(N)nccc43)CC2)CC1 (centres unmarked) [Compound I-4]
drug dose-response in BTK C481S expressing cells (ibrutinib resistance) [1]: overcomes BTKC481S mediated ibrutinib resistance | drug dose-response in BTK C481S expressing cells (ibrutinib resistance) [2]: overcomes BTKC481S mediated ibrutinib resistance
